Assay results published in patent US20260028365A1 (BIOGEN MA INC., priority 2022, published 2026).
pIC50: −log10 of the molar value. Where two headings read alike, the source gives them in different places.

Tests used:
Tyk2 = Tyk2 (Homo sapiens (Human), UniProt P29597); assay: pSTAT4 Cell Assay (MSD, NK92 cells); format: cell-based
JAK2 = JAK2 (Homo sapiens (Human), UniProt O60674); assay: pSTAT5 Cell Assay (MSD, TF1 cells); format: cell-based; conditions: MSD
Method: Compounds of the disclosure were assessed for their ability to inhibit the JAK2 kinase activity on STAT5 utilizing an MSD-platform plate-based assay format. TF1 cells natively expressing STAT5 and JAK2 were serum-starved to reduce background phosphorylation levels, then cells were treated with compounds of disclosure for 1 hour with a 10-point four-fold dilution series starting at 10 μM. Cells were then stimulated with 30 ng/mL IL-3 for 15 minutes. Cells were then lysed and pSTAT5 levels were quantitated using an MSD plate-based assay with anti-STAT5 antibodies. The data were normalized and the percent activity versus log concentration of compound was fitted with a 4-parameter logistic model to generate a curve and an IC50 value.

JAK1 = JAK1 (Homo sapiens (Human), UniProt P23458); assay: pSTAT3 Cell Assay (MSD, TF1 cells); format: cell-based
Method: The inhibitory potency of compounds of the disclosure against the JAK1 kinase activity on STAT3 was evaluated using an MSD-platform plate-based assay format. TF1 cells natively expressing STAT3 and JAK1 were serum-starved to reduce background phosphorylation levels, then cells were treated with compounds of the disclosure for 1 hour with a 10-point four-fold dilution series starting at 10 μM. Cells were then stimulated with 30 ng/mL interleukin 6 (IL-6) for 15 minutes. Cells were lysed and pSTAT3 levels were quantitated using an MSD plate-based assay with anti-STAT3 antibodies. The data were normalized and the percent activity versus log concentration of compound was fitted with a 4-parameter logistic model to generate IC50 curves.

JH2 domain of human Tyk2 = JH2 domain of human Tyk2 (Homo sapiens (Human), UniProt P29597); assay: JH2 Biochemical Assay (TR-FRET probe displacement); format: binding
[1] = JH2 domain of human Tyk2, TR-FRET probe displacement
[2] = TR-FRET probe displacement, JH2 domain

Chain of JH2 domain of human Tyk2 (P29597 575-876): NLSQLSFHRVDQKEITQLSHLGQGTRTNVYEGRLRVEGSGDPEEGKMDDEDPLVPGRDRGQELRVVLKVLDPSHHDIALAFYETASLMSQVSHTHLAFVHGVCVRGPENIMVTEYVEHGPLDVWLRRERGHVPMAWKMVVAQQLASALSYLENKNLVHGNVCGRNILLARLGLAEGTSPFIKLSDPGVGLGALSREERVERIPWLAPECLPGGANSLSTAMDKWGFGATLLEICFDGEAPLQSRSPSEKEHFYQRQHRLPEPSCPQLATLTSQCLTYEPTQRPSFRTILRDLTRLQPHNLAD
Chain of JAK1 (P23458 whole entry): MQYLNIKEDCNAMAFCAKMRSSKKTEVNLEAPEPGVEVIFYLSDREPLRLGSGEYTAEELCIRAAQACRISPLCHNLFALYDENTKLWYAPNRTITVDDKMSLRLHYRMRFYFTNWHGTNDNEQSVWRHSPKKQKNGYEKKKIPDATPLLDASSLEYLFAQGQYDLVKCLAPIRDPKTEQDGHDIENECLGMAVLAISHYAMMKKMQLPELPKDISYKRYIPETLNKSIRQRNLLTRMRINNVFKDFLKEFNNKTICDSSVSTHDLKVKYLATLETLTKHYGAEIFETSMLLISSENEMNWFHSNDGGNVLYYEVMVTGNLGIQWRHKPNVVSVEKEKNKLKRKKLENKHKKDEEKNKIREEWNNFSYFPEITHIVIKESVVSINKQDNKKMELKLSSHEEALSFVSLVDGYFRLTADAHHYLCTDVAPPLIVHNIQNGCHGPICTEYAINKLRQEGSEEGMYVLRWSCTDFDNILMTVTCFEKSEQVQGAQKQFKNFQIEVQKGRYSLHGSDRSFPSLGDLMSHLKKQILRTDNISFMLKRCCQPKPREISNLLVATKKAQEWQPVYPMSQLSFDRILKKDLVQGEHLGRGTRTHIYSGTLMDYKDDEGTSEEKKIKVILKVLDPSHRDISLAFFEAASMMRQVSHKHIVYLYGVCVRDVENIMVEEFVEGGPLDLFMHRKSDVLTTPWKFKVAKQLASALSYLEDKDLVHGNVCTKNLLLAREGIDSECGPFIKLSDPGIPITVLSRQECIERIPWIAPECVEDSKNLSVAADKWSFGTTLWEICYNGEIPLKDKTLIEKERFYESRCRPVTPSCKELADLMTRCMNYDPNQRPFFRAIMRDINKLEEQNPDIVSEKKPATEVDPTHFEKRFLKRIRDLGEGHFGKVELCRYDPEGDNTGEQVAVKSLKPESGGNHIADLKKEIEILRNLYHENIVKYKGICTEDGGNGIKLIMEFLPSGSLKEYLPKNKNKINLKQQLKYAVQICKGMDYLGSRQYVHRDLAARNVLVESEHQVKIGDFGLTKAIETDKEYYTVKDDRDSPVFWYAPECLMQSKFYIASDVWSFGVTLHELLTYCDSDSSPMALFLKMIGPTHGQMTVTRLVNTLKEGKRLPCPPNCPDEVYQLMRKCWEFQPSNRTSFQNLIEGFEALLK
Chain of Tyk2 (P29597 whole entry): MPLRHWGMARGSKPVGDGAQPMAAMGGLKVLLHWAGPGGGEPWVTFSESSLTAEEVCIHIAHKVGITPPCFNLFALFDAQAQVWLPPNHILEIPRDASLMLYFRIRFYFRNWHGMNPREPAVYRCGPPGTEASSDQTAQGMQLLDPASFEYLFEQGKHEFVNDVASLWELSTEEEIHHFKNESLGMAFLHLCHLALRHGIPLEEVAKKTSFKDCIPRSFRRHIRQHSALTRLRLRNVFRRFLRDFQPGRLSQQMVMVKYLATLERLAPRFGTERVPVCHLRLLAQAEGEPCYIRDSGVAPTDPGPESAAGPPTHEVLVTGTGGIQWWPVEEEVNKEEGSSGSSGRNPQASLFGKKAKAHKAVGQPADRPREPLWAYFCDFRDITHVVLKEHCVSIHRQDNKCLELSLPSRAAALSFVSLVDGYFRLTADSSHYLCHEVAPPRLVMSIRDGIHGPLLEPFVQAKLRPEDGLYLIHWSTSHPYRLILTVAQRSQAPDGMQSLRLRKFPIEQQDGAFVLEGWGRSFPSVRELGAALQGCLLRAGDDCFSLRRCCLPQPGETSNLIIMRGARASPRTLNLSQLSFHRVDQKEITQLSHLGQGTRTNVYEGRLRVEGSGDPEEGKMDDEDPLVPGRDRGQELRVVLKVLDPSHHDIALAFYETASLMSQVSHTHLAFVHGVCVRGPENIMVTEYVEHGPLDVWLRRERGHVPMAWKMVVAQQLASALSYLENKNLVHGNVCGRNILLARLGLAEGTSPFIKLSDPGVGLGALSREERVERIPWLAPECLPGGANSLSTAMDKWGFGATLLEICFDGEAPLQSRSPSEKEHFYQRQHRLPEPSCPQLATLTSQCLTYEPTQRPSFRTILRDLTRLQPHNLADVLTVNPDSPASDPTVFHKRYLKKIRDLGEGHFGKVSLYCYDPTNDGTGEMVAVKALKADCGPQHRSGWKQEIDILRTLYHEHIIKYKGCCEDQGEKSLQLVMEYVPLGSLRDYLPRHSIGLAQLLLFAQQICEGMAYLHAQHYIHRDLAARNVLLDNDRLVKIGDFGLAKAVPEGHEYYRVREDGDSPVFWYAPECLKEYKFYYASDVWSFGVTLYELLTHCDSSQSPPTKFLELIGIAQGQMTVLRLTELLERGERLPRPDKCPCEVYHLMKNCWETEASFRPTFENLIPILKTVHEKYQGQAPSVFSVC
Chain of JAK2 (O60674 whole entry): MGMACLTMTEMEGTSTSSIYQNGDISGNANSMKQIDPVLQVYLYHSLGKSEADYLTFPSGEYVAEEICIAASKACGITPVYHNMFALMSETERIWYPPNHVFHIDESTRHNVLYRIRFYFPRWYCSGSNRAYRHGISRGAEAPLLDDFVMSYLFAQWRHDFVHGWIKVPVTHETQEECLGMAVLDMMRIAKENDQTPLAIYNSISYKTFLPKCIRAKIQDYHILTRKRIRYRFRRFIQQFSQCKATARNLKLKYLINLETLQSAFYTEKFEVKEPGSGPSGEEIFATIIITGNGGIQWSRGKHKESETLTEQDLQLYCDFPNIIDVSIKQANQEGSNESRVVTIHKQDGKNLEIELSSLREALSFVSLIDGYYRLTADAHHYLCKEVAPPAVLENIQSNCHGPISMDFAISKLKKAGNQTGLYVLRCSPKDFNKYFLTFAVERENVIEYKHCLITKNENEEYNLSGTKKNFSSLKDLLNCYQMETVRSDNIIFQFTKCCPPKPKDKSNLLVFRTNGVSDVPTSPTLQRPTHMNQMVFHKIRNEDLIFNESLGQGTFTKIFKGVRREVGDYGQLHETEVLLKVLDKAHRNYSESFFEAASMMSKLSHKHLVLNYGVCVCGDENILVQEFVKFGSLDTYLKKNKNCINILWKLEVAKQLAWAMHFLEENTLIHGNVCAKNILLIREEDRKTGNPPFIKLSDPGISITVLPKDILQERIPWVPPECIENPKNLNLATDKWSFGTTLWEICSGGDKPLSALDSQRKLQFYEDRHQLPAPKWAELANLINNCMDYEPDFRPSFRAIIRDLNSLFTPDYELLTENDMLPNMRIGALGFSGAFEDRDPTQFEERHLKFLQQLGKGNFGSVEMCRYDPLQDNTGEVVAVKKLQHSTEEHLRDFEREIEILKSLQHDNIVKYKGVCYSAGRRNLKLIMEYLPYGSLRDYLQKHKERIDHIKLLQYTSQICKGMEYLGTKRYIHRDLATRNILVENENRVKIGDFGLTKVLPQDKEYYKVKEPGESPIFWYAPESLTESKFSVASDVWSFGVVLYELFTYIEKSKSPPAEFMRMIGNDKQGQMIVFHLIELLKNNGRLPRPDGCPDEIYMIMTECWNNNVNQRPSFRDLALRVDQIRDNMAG

| Structure (SMILES) | pIC50 (JH2 domain of human Tyk2; [2]) | pIC50 (Tyk2) | pIC50 (JAK1; IL-6 stimulated) | other results |
| --- | --- | --- | --- | --- |
| CC(=O)Nc1cc(Nc2cc(C)nc(C(C)(F)F)n2)c(OCC(C)(C)F)cn1 [Example 119, N-(4-((2-(1,1-difluoroethyl)-6-methylpyrimidin-4-yl)amino)-5-(2-fluoro-2-methylpropoxy)pyridin-2-yl)acetamide] | – | – | – | pIC50 (Tyk2; MSD): 7.00 to 8.00; pIC50 (JAK2; IL-3 stimulation): ≤ 6.00; pIC50 (JAK1; IL-6 stimulation, MSD): ≤ 6.00 |
| CC(=O)Nc1cc(Nc2cc(C)nc(C(C)(F)F)n2)c(OCC2COCCO2)cn1 (stereo not drawn) [Example 135, N-(5-((1,4-dioxan-2-yl)methoxy)-4-((2-(1,1-difluoroethyl)-6-methylpyrimidin-4-yl)amino)pyridin-2-yl)acetamide] | – | – | – | pIC50 (Tyk2; MSD): ≥ 8.00; pIC50 (JAK2; IL-3 stimulation): ≤ 6.00; pIC50 (JAK1; IL-6 stimulation, MSD): ≤ 6.00 |
| COCc1ccc(-c2cnc(NC(C)=O)cc2Nc2cc(C)nc(C34CC(CO3)C4)n2)nc1 [Example 280, N-(4′-((2-(2-oxabicyclo[2.1.1]hexan-1-yl)-6-methylpyrimidin-4-yl)amino)-5-(methoxymethyl)-[2,3′-bipyridin]-6′-yl)acetamide] | – | – | – | pIC50 (JH2 domain of human Tyk2; TR-FRET probe displacement, JH2 domain of human Tyk2): ≥ 8.00; pIC50 (Tyk2; MSD): ≥ 8.00; pIC50 (JAK1; IL-6 stimulation, MSD): ≤ 6.00 |
| COCn1ncc(-c2cnc(NC(C)=O)cc2Nc2cc(C)nc(C(C)(F)F)n2)n1 [Example 608, N-(4-((2-(1,1-difluoroethyl)-6-methylpyrimidin-4-yl)amino)-5-(2-(methoxymethyl)-2H-1,2,3-triazol-4-yl)pyridin-2-yl)acetamide] | – | – | – | pIC50 (JH2 domain of human Tyk2; [1]): ≥ 8.00; pIC50 (Tyk2; MSD): ≥ 8.00; pIC50 (JAK1; IL-6 stimulated, MSD): ≤ 6.00 |
| COCCn1ncc(-c2cnc(NC(C)=O)cc2Nc2ccnc(C(C)(F)F)n2)n1 [Example 710, N-(4-((2-(1,1-difluoroethyl)pyrimidin-4-yl)amino)-5-(2-(2-methoxyethyl)-2H-1,2,3-triazol-4-yl)pyridin-2-yl)acetamide] | – | – | – | pIC50 (JH2 domain of human Tyk2; [1]): ≥ 8.00; pIC50 (Tyk2; MSD): ≥ 8.00; pIC50 (JAK2; IL-3 stimulated): ≤ 6.00 |
| CC(=O)Nc1cc(Nc2cc(C)nc(C(C)(F)F)n2)c(-c2nncs2)cn1 [Example 744, N-(4-((2-(1,1-difluoroethyl)-6-methylpyrimidin-4-yl)amino)-5-(1,3,4-thiadiazol-2-yl)pyridin-2-yl)acetamide] | – | – | – | pIC50 (JH2 domain of human Tyk2; [1]): ≥ 8.00; pIC50 (Tyk2; MSD): ≥ 8.00; pIC50 (JAK1; IL-6 stimulated, MSD): ≤ 6.00 |
| CC(=O)Nc1cc(Nc2cc(C)nc(C34COC(C3)C4)n2)c(-c2cc(C)ncn2)cn1 [Example 746, N-(4-((2-(2-oxabicyclo[2.1.1]hexan-4-yl)-6-methylpyrimidin-4-yl)amino)-5-(6-methylpyrimidin-4-yl)pyridin-2-yl)acetamide] | ≥ 8.00 | 6.00 to 7.00 | ≤ 6.00 | – |
| CC(=O)Nc1cc(Nc2cc(C)nc(C34COC(C3)C4)n2)c(-c2ccncn2)cn1 [Example 748, N-(4-((2-(2-oxabicyclo[2.1.1]hexan-4-yl)-6-methylpyrimidin-4-yl)amino)-5-(pyrimidin-4-yl)pyridin-2-yl)acetamide] | ≥ 8.00 | ≥ 8.00 | ≤ 6.00 | – |
| CC(=O)Nc1cc(Nc2cc(C)nc(C34COC(C3)C4)n2)c(-c2ccc(C#N)cn2)cn1 [Example 751, N-(4′-((2-(2-oxabicyclo[2.1.1]hexan-4-yl)-6-methylpyrimidin-4-yl)amino)-5-cyanO[2,3′-bipyridin]-6′-yl)acetamide] | ≥ 8.00 | 7.00 to 8.00 | ≤ 6.00 | – |
| COCCc1nnc(-c2cnc(NC(C)=O)cc2Nc2cc(C)nc(C(C)(F)F)n2)s1 [Example 754, N-(4-((2-(1,1-difluoroethyl)-6-methylpyrimidin-4-yl)amino)-5-(5-(2-methoxyethyl)-1,3,4-thiadiazol-2-yl)pyridin-2-yl)acetamide] | ≥ 8.00 | ≥ 8.00 | ≤ 6.00 | – |
| COCCc1cnc(-c2cnc(NC(C)=O)cc2Nc2cc(C)nc(C(C)(F)F)n2)s1 [Example 756, N-(4-((2-(1,1-difluoroethyl)-6-methylpyrimidin-4-yl)amino)-5-(5-(2-methoxyethyl)thiazol-2-yl)pyridin-2-yl)acetamide] | ≥ 8.00 | 6.00 to 7.00 | ≤ 6.00 | – |
| CC(=O)Nc1cc(Nc2cc(C)nc(C(C)(F)F)n2)c(-c2cn3c(n2)COCC3)cn1 [Example 768, N-(4-((2-(1,1-difluoroethyl)-6-methylpyrimidin-4-yl)amino)-5-(5,6-dihydrO8H-imidazo[2,1-c][1,4]oxazin-2-yl)pyridin-2-yl)acetamide] | ≥ 8.00 | ≥ 8.00 | ≤ 6.00 | – |
| CC(=O)Nc1cc(Nc2ccnc(C(C)(F)F)n2)c(-c2ccnc(C(F)F)n2)cn1 [Example 775, N-(4-((2-(1,1-difluoroethyl)pyrimidin-4-yl)amino)-5-(2-(difluoromethyl)pyrimidin-4-yl)pyridin-2-yl)acetamide] | ≥ 8.00 | ≥ 8.00 | ≤ 6.00 | – |
| COCCOc1nccc(-c2cnc(NC(C)=O)cc2Nc2cc(C)nc(C(C)(F)F)n2)n1 [Example 776, N-(4-((2-(1,1-difluoroethyl)-6-methylpyrimidin-4-yl)amino)-5-(2-(2-methoxyethoxy)pyrimidin-4-yl)pyridin-2-yl)acetamide] | ≥ 8.00 | ≥ 8.00 | ≤ 6.00 | – |
| CC(=O)Nc1cc(Nc2ccnc(C(C)(F)F)n2)c(-c2cn3c(n2)CCCC3)cn1 [Example 780, N-(4-((2-(1,1-difluoroethyl)pyrimidin-4-yl)amino)-5-(5,6,7,8-tetrahydroimidazo[1,2-a]pyridin-2-yl)pyridin-2-yl)acetamide] | ≥ 8.00 | ≥ 8.00 | ≤ 6.00 | – |
| CC(=O)Nc1cc(Nc2ccnc(C(C)(F)F)n2)c(-c2nc3c(s2)CN(C)CC3)cn1 [Example 798, N-(4-((2-(1,1-difluoroethyl)pyrimidin-4-yl)amino)-5-(5-methyl-4,5,6,7-tetrahydrothiazolo[5,4-c]pyridin-2-yl)pyridin-2-yl)acetamide] | ≥ 8.00 | ≥ 8.00 | ≤ 6.00 | – |
| CC(=O)Nc1cc(Nc2cc(C)nc(C(C)(C)F)n2)c(-c2ccncn2)cn1 [Example 800, N-(4-((2-(2-fluoropropan-2-yl)-6-methylpyrimidin-4-yl)amino)-5-(pyrimidin-4-yl)pyridin-2-yl)acetamide] | ≥ 8.00 | ≥ 8.00 | ≤ 6.00 | – |
| CCc1cc(Nc2cc(NC(C)=O)ncc2-c2ccc(OC(F)F)cn2)nc(C(C)(F)F)n1 [Example 849, N-(4′-((2-(1,1-difluoroethyl)-6-ethylpyrimidin-4-yl)amino)-5-(difluoromethoxy)-[2,3′-bipyridin]-6′-yl)acetamide] | ≥ 8.00 | ≥ 8.00 | ≤ 6.00 | – |
| CNc1ccc(-c2cnc(NC(C)=O)cc2Nc2ccnc(C(C)(F)F)n2)nc1 [Example 857, N-(4′-((2-(1,1-difluoroethyl)pyrimidin-4-yl)amino)-5-(methylamino)-[2,3′-bipyridin]-6′-yl)acetamide] | ≥ 8.00 | ≥ 8.00 | ≤ 6.00 | – |
| CCc1cc(Nc2cc(NC(C)=O)ncc2-c2ccc(NC)cn2)nc(C(C)(F)F)n1 [Example 859, N-(4′-((2-(1,1-difluoroethyl)-6-ethylpyrimidin-4-yl)amino)-5-(methylamino)-[2,3′-bipyridin]-6′-yl)acetamide] | ≥ 8.00 | ≥ 8.00 | ≤ 6.00 | – |
| CCc1cc(Nc2cc(NC(C)=O)ncc2-c2cnc(N3CCOCC3)cn2)nc(C(C)(F)F)n1 [Example 861, N-(4-((2-(1,1-difluoroethyl)-6-ethylpyrimidin-4-yl)amino)-5-(5-morpholinopyrazin-2-yl)pyridin-2-yl)acetamide] | ≥ 8.00 | 7.00 to 8.00 | ≤ 6.00 | – |
| CCc1cc(Nc2cc(NC(C)=O)ncc2-c2cc(C(F)F)ncn2)nc(C(C)(F)F)n1 [Example 891, N-(4-((2-(1,1-difluoroethyl)-6-ethylpyrimidin-4-yl)amino)-5-(6-(difluoromethyl)pyrimidin-4-yl)pyridin-2-yl)acetamide] | ≥ 8.00 | ≥ 8.00 | ≤ 6.00 | – |
| CC(=O)Nc1cc(Nc2ccnc(C(C)(F)F)n2)c(-c2ccc(CN3CCOC[C@@H]3C)cn2)cn1 [Example 892, (S)-N-(4′-((2-(1,1-difluoroethyl)pyrimidin-4-yl)amino)-5-((3-methylmorpholino)methyl)-[2,3′-bipyridin]-6′-yl)acetamide] | ≥ 8.00 | ≥ 8.00 | ≤ 6.00 | – |
| CCc1cc(Nc2cc(NC(C)=O)ncc2-c2cnn(C)n2)nc(C(C)(F)F)n1 [Example 918, N-(4-((2-(1,1-difluoroethyl)-6-ethylpyrimidin-4-yl)amino)-5-(2-methyl-2H-1,2,3-triazol-4-yl)pyridin-2-yl)acetamide] | ≥ 8.00 | ≥ 8.00 | ≤ 6.00 | – |
| CC(=O)Nc1cc(Nc2cc(C)nc(C(C)(F)F)n2)c(-c2cnc(C(F)F)cn2)cn1 [Example 921, N-(4-((2-(1,1-difluoroethyl)-6-methylpyrimidin-4-yl)amino)-5-(5-(difluoromethyl)pyrazin-2-yl)pyridin-2-yl)acetamide] | ≥ 8.00 | 7.00 to 8.00 | ≤ 6.00 | – |
